Data from publication PMC7875911 (Frontiers in Pharmacology, 2021).
“Also recorded” adds a separate entry of the source.

Legend:
rCav2.2 = experiment: Whole-cell patch clamp, recombinant rCav2.2 in HEK293; type: cell-based, rat; details: 10 µM
Experimental: (§1) Human embryonic kidney (HEK293T) cells containing the SV40 Large T-antigen were cultured at 37°C, 5% CO2 in Dulbecco’s Modified Eagle’s Medium (DMEM, Invitrogen Life Technologies, Australia), supplemented with 10% fetal bovine serum (FBS, Bovigen, Australia), 1% GlutaMAX and penicillin-streptomycin (Invitrogen, Australia). […]
(§2) Depolarization-activated Ca^2+ currents (ICa) in transfected HEK293 cells were recorded in the whole-cell patch clamp configuration. Data were recorded using a MultiClamp 700B amplifier, digitized with a DigiData1440 and controlled using Clampex10.7 software (Molecular Devices, United States). […]
(§3) Statistical significance (p < 0.05) was determined using unpaired Student’s t-test or 1-way ANOVA followed by a Tukey multiple comparison. […]
(§4) Numerous HVA Cav channel isoforms are present in rat DRG neurons. […] We transiently co-transfected the individual Cav channel α-subunits of interest together with β3 and α2δ1 subunits in HEK293 cells and measured whole-cell I Ca currents by patch clamp. […]

animal pain models = details: in vivo, cited from earlier work
From the text: […]. Nav channels are structurally related to voltage-gated calcium (Cav) channels, Cav1 and Cav2. […] […].

[1] = system: TTXs-I Na in small-diameter IB4 ^− DRG neurons; details: cited from earlier work
rCav1.3 = experiment: Whole-cell patch clamp, recombinant rCav1.3 in HEK293; type: cell-based, rat; details: 10 µM
Experimental: as §1, §2, §3, §4

hCav2.3 = experiment: Whole-cell patch clamp, recombinant hCav2.3 in HEK293; type: cell-based, human
Experimental: as §1, §2, §3, §4

hNav1.7 = hNav1.7 (Homo sapiens, UniProt Q15858); type: cell-based
From the text: An EPC-9 patch-clamp amplifier and corresponding PULSE software from HEKA Electronik (Lambrecht/Pfalz, Germany) were used to make recordings. Currents were sampled at 50 kHz and recorded on a hard disk. Borosilicate glass from AM Systems, Everett, WA, United States were used for patch pipettes. The input resistance of the pipettes ranged from 2 to 4 MΩ. […] A built-in procedure of the HEKA amplifier compensated for the capacitive transient currents. A −P/6 protocol was utilized to subtract leak current online. I Ca was generated with the recording protocol which included a depolarization from a holding potential of −80 mV to 0 mV for 10 ms every 30 s. I Na was generated through a recording protocol which included a step depolarization from a holding potential of −80 mV to 0 mV for 10 ms at a frequency of 0.1 Hz. Cells were perfused with the test compound via a pressure driven perfusion system (AutoMate Scientific, United States).

mCav1.2 = experiment: Whole-cell patch clamp, recombinant mCav1.2 in HEK293; type: cell-based, mouse; details: 10 µM
Experimental: as §1, §2, §3, §4

hCav2.2 [2] = target: T1, hCav2.2 (Homo sapiens, UniProt Q00975); experiment: hCav2.2 steady-state inactivation (SSI); type: cell-based
T1 construct: expressed in transfected cells; host or cells: HEK293 (HEK293T), transient calcium phosphate co-transfection
Experimental: Human embryonic kidney (HEK293T) cells containing the SV40 Large T-antigen were cultured at 37°C, 5% CO2 in Dulbecco’s Modified Eagle’s Medium (DMEM, Invitrogen Life Technologies, Australia), supplemented with 10% fetal bovine serum (FBS, Bovigen, Australia), 1% GlutaMAX and penicillin-streptomycin (Invitrogen, Australia). HEK293 cells were then transiently co-transfected with the different voltage-gated calcium channel isoforms and green fluorescent protein (GFP) for visualization, using the calcium phosphate method. cDNAs encoding mCav1.2 (a gift from Dr. D. Lipscombe; Addgene plasmid #26572) ([Helton et al., 2005]), rCav1.3 (a gift from Dr. D. Lipscombe; Addgene plasmid # 49,333) ([Xu and Lipscombe, 2001]), hCav2.1 (a gift from Dr. J. Striessnig), rCav2.2 (a gift from Dr. D. Lipscombe), hCav2.2 (a gift from Dr. D. Yue), hCav2.3 (purchased from GenScript United States Inc.) were co-transfected with β3, α2δ1 and GFP. […]
as §2, §3

[3] = system: Cav1.2, Cav1.3, Cav2.1, and Cav2.2
Experimental: as §1, §2, §3, §4

hCav2.2 [4] = target: T1, hCav2.2; experiment: hCav2.2 voltage dependence of activation; type: cell-based
Experimental: Human embryonic kidney (HEK293T) cells containing the SV40 Large T-antigen were cultured at 37°C, 5% CO2 in Dulbecco’s Modified Eagle’s Medium (DMEM, Invitrogen Life Technologies, Australia), supplemented with 10% fetal bovine serum (FBS, Bovigen, Australia), 1% GlutaMAX and penicillin-streptomycin (Invitrogen, Australia). HEK293 cells were then transiently co-transfected with the different voltage-gated calcium channel isoforms and green fluorescent protein (GFP) for visualization, using the calcium phosphate method. cDNAs encoding mCav1.2 (a gift from Dr. D. Lipscombe; Addgene plasmid #26572) ([Helton et al., 2005]), rCav1.3 (a gift from Dr. D. Lipscombe; Addgene plasmid # 49,333) ([Xu and Lipscombe, 2001]), hCav2.1 (a gift from Dr. J. Striessnig), rCav2.2 (a gift from Dr. D. Lipscombe), hCav2.2 (a gift from Dr. D. Yue), hCav2.3 (purchased from GenScript United States Inc.) were co-transfected with β3, α2δ1 and GFP. After transfection, cells were plated on 12 mm cover glass and transferred to a 30°C incubator for 1–3 days.
Depolarization-activated Ca^2+ currents (ICa) in transfected HEK293 cells were recorded in the whole-cell patch clamp configuration. Data were recorded using a MultiClamp 700B amplifier, digitized with a DigiData1440 and controlled using Clampex10.7 software (Molecular Devices, United States). Currents were sampled at 100 kHz and filtered to 10 kHz, with leak and capacitive currents subtracted using a −P/4 protocol. […] Intracellular recording solution contained as follows (mM): 140 KGluconate, 5 NaCl, 2 MgCl2, 5 EGTA and 10 HEPES, pH 7.2 with KOH. Cells were continuously perfused with extracellular solution at a rate of ∼1.2 ml/min. […] Activation curves of hCav2.2 were generated through a series of test pulses (50 ms) ranging from −30 to +50 mV (Δ5 mV) every 5 s with a holding potential of −90 mV. […]
as §3

[5] = system: mouse models of acute postsurgical pain; details: in vivo; cited from earlier work

hNav1.7, sequence (Q15858 whole entry): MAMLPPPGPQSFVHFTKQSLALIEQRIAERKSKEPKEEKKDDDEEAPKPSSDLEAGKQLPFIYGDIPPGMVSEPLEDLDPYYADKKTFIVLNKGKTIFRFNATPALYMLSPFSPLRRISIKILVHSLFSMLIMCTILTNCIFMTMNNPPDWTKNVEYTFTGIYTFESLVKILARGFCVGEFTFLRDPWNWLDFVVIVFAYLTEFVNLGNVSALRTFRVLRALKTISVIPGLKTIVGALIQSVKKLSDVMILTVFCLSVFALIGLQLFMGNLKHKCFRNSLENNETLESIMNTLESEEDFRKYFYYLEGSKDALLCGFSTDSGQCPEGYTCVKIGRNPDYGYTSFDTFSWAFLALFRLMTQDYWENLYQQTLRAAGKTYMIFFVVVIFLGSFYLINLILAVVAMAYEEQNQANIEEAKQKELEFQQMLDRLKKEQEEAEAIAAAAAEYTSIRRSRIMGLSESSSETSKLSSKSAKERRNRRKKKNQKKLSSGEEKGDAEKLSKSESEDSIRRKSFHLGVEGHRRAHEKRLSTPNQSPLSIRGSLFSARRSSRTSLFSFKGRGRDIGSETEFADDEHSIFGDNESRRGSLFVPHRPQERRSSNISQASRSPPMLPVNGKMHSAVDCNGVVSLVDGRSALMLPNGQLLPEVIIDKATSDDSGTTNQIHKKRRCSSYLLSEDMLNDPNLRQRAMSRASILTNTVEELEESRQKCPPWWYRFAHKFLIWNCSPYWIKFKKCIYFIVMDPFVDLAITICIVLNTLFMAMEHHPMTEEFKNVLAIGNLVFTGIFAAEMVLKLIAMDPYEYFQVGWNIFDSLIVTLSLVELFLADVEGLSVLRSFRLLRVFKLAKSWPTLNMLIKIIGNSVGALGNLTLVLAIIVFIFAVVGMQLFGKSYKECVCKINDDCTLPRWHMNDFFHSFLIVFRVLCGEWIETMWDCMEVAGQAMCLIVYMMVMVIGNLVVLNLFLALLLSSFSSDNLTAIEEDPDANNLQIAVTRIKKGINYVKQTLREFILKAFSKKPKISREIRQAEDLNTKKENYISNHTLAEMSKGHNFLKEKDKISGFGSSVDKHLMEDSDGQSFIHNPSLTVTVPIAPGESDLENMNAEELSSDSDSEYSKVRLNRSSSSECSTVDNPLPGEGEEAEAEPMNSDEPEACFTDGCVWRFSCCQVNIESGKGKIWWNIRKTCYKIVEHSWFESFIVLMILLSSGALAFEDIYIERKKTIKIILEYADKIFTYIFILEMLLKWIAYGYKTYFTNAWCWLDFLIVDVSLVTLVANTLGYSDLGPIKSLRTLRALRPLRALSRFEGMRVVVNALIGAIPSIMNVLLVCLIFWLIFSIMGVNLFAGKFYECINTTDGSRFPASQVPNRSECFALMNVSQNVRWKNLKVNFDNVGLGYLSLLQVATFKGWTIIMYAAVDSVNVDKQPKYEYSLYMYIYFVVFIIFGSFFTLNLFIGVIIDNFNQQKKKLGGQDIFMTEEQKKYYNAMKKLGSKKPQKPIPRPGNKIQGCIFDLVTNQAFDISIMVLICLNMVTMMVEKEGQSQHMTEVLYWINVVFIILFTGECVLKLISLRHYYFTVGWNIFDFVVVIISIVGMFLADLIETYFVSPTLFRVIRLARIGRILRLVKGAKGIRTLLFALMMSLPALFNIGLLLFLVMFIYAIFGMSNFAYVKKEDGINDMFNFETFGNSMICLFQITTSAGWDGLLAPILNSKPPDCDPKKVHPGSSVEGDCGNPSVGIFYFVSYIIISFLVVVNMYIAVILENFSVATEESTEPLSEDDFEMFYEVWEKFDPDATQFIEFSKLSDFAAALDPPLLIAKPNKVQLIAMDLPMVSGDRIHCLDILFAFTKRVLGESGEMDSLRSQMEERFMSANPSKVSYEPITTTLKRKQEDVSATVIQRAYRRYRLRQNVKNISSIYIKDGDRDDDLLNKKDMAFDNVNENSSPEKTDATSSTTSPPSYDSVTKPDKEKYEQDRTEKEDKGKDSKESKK

For `CSCC[C@@H]1NC(=O)[C@H](Cc2ccc(O)cc2)NC(=O)[C@H](CCCNC(=N)N)NC(=O)[C@@H](NC(=O)[C@@H](N)CC(=O)O)CSSC[C@@H]2NC(=O)[C@@H]3CSSC[C@@H](C(=O)N[C@@H](C)C(=O)N[C@@H](Cc4c[nH]c5ccccc45)C(=O)N[C@@H](CC(=O)O)C(=O)N[C@@H](Cc4ccccc4)C(=O)N[C@H](C(=O)N[C@@H](Cc4ccccc4)C(=O)N[C@H](C(=O)O)[C@@H](C)O)[C@@H](C)O)NC(=O)[C@H](Cc4ccc(O)cc4)NC(=O)[C@H](CCCCN)NC(=O)[C@H](CCSC)NC(=O)[C@H](CCCCN)NC(=O)[C@H](CCCNC(=N)N)NC(=O)[C@H](CCCCN)NC(=O)[C@H](CSSC[C@H](NC(=O)[C@H](CC(=O)O)NC(=O)CNC(=O)[C@H](Cc4ccccc4)NC1=O)C(=O)N[C@@H](CCC(=O)O)C(=O)N[C@@H](CCCCN)C(=O)N[C@@H](CC(=O)O)C(=O)N[C@@H](CCC(=O)O)C(=O)N[C@@H](CC(=O)O)C(=O)N3)NC(=O)CNC(=O)[C@H](CC(C)C)NC(=O)[C@H](Cc1c[nH]cn1)NC(=O)[C@H](CCCCN)NC2=O` [Pn3a, µ-Theraphotoxin-Pn3a], the “inhibition of rat Cav2.2-mediated current” value (rCav2.2) is given as 69.5 ± 1.0%, the “analgesia/anti-allodynia on co-administration with opioids (in words)” value (animal pain models; 1 mg/kg) is given as “significant analgesia/anti-allodynia” and the “analgesia in various animal pain models (in words)” value (animal pain models) is given as “fails to produce analgesia”. For the same compound, the “effect in rodent models of acute nociception or inflammatory pain (in words)” value (animal pain models) was “ineffective”, the “suppression of TTXs-I Na (in words)” value [1] was “strongly suppress” and the “inhibition of Cav1.3-mediated current” value (rCav1.3) was 65.6 ± 1.8%. For the same compound, the “effect on Cav2.3-mediated current (in words)” value (hCav2.3) was “no inhibition; also recorded: negligible effects; also recorded: minimally affected”, the “inhibition of Cav2.3-mediated current” value (hCav2.3; 10 µM) was 2.2 ± 0.9% and the “concentration at which inhibition is reliably distinguished from current rundown” value (hNav1.7) was over 10 nM. For the same compound, the “difference in hNav1.7 potency from reported value” (hNav1.7) was about 30 fold, the “reversibility of hNav1.7 inhibition” value (hNav1.7) was “virtually irreversible at higher concentrations” and the “inhibition of Cav1.2-mediated current” value (mCav1.2) was 70.3 ± 1.5%. The “V0.5 of steady-state inactivation” value (hCav2.2 [2]) was −69.8 ± 0.3 mV, the “slope factor ka of steady-state inactivation” value (hCav2.2 [2]) was 10.5 ± 0.3 and the “reversibility of block on washout” value [3] was “fully reversible upon washout”. For the same compound, the V0.5 of activation (hCav2.2 [4]) was 11.7 ± 0.1 mV, the “effect on voltage dependence of activation (in words)” value (hCav2.2 [4]) was “slightly shifted; also recorded: without apparent changes in channel activation” and the “slope factor ka of activation” value (hCav2.2 [4]) was 3.7 ± 0.1. The “antinociceptive behavior in acute postsurgical pain (in words)” value [5] was “causes antinociceptive behavior”.
